Measured values taken from PubChem BioAssay (NCI).
Where “and” joins values, the source holds several entries; their conditions need not be identical. Identical values can stand only once.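 A five-concentration, 48-hour dose response in 96-well plates underlies each endpoint, interpolated linearly between surrounding concentrations. The concentration for 50% growth inhibition is given as GI50. TGI: concentration producing complete growth inhibition.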

How the values were obtained:
Assay in all cases: NCI anticancer screen, dose series, 48 h
[1] = test system: A549 NSCLC
[2] = test system: ACHN renal
[3] = test system: RXF 393 renal
[4] = test system: SF-268 CNS
[5] = test system: SF-295 CNS
[6] = test system: SK-MEL-5 melanoma
[7] = test system: SR leukemia
[8] = test system: UACC-257 melanoma
[9] = test system: DMS 114 small cell lung
[10] = test system: SNB-78 CNS

Structure (SMILES)	GI50 [1]	TGI [1] [µM]	GI50 [2]	TGI [2] [µM]	GI50 [3]	TGI [3] [µM]	GI50 [4]	TGI [4] [µM]	GI50 [5]	TGI [5] [µM]	GI50 [6]	TGI [6]	GI50 [7] [nM]	TGI [7] [µM]	GI50 [8] [µM]	TGI [8] [µM]	TGI [9] [µM]	TGI [10] [µM]
CCN1CCN(Cc2ccc3cc(C(=O)Nc4cc(NC(=O)c5ccc6c(c5)OCCO6)ccc4F)ccc3n2)CC1	51.1 nM	11.6	27.4 nM	0.267	14.2 nM	0.0729	74.2 nM	10	47.5 nM	2.92	108 nM	0.756 µM	44.3	1.48	0.133	10.5	–	–
NC(CCCNCc1ccccc1O)C(=O)O (stereo unspecified)	–	> 100	–	> 100	–	–	–	> 100	–	> 100	–	> 100 µM	–	–	–	> 100	> 100	> 100
O=C1[C@H](c2ccccc2)C2c3ccccc3CCN12 (stereo partly specified)	> 100000 nM	> 100	> 100000 nM	> 100	> 100000 nM	> 100	> 100000 nM	> 100	> 100000 nM	> 100	> 100000 nM	> 100 µM	> 100000	> 100	> 100	> 100	–	–
COc1ccc2c(c1)CC[C@@H]1[C@@H]2CC[C@]2(C)c3c(cc(C(=O)c4ccccc4)c4sccc34)C[C@@H]12	> 100000 nM	> 100	> 100000 nM	> 100	> 100000 nM	> 100	> 100000 nM	> 100	> 100000 nM	> 100	> 100000 nM	> 100 µM	> 100000	> 100	> 100	> 100	–	–
CCNCCNc1cc(C2CCCC2)c(C#N)c2nc3ccccc3n12	3590 nM	8.22	1910 nM	4	1810 nM	4	3280 nM	14	1700 nM	3.46	1750 nM	3.31 µM	1660	6.13	2.58	4.74	–	–
COC(=O)/C(Cl)=C1/CC1COCc1ccccc1 (stereo unspecified)	–	> 100	–	81.6	–	37.8	–	> 100	–	> 100	–	54.7 µM	–	–	–	> 100	81.2	> 100
COc1cc([C@@H]2c3cc4c(cc3[C@@H](NC(=O)c3ccc([N+](=O)[O-])cc3)C3COC(=O)[C@@H]32)OCO4)cc(OC)c1O (stereo partly specified)	–	1.53	–	1.58	–	34.8	–	5.77	–	11.5	–	3.53 µM	–	–	–	59.6	2.35	75.5
O=C(Nc1ncc(Cc2ccc(Cl)cc2)s1)c1ccc2c(c1)OCCO2	69.6 nM	> 100	64.5 nM	> 54.5	32.6 nM	0.567	786 nM	> 100	42.4 nM	2.02	53.9 nM	1.42 µM	52.8	> 100	5.8	> 100	–	–
OCCCNC(=S)Nc1ccc(-c2nc3ccccc3s2)cc1	33700 nM	> 100	21500 nM	47.7	10400 nM	52.4	22500 nM	> 100	14800 nM	45	20900 nM	47.1 µM	14600	50	27.1	51.9	–	–
C/C(CN1C(=O)c2ccccc2C1=O)=N\NS(C)(=O)=O	–	> 100	–	> 100	–	> 100	–	> 100	–	> 100	–	> 100 µM	–	–	–	> 100	> 100	> 100
Cn1cc(-c2nc(-c3cn(C)c4ncccc34)cs2)c2cc(F)ccc21	1740 nM	> 100	2960 nM	> 100	1510 nM	4.77	3380 nM	47.2	709 nM	6.18	847 nM	3.37 µM	565	17.8	6.33	> 100	–	–
Cc1ccc(S(=O)(=O)C2=C3C(=C(c4ccccc4)c4ccccc43)CN(S(=O)(=O)c3ccc(C)cc3)C2)cc1	> 100000 nM	> 100	4520 nM	19.3	4010 nM	16	2600 nM	12.9	9970 nM	57	5040 nM	18.3 µM	1550	25.7	15.8	37.4	–	–
NS(=O)(=O)c1ccc(NCc2cnc3ccccc3c2)cc1	–	> 100	–	> 100	–	> 100	–	> 100	–	> 100	–	> 100 µM	–	> 100	–	> 100	–	–
Cc1cccc2c(=O)c3c(sc12)c(NCCN)nc1ccccc13	823 nM	1.63	762 nM	1.43	1030 nM	2.75	1180 nM	3.88	886 nM	1.7	953 nM	1.94 µM	719	1.85	0.966	1.99	–	–
COc1ccc(OC)c(/C=C/c2cnnc3ccccc23)c1	–	> 10	–	> 10	–	> 10	–	> 10	–	> 10	–	> 10 µM	–	5.14	–	> 10	–	–
COc1cc([C@@H]2c3cc4c(cc3[C@H](O)[C@H]3COC(=O)[C@@H]23)OCO4)cc(OC)c1OC	732 nM and 333 nM	> 100	568 nM and 1410 nM	> 100	211 nM and 316 nM	–	722 nM and 445 nM	> 100	285 nM and 104 nM	1.61	351 nM and 35.5 nM	1.8 µM and 0.254 µM	222	> 10	> 100	> 100	–	–
COc1ccc2c(c1)N(CCC1CCCCN1C)c1ccccc1S2 (stereo unspecified)	–	27.8	–	28.1	–	21.8	–	26.6	–	31.2	–	24.8 µM	–	20.9	–	17.3	–	–
O=C1/C(=c2\c3ccccc3n3c(=O)c4ccccc4nc23)Nc2ccccc21	–	> 100	–	> 100	–	> 100	–	> 100	–	> 100	–	> 100 µM	–	> 100	–	> 100	–	–
